Source: patent publication US11759412B2, “Personal care compositions with glutathione precursor comprising 4-substituted resorcinols and amino acids” (Conopco, Inc., priority 2016, dated 2023)

Legend:
Assay type in all cases: cell-based
Aged Human Keratinocytes = experiment: Glutathione Assay (total glutathione, GSH-GSSG Glo, menadione challenge); conditions: for synergistic increase in GSH synthesis, combination with GAP amino acids vs either alone: resorcinol/test reagent combined with GAP, + menadione
Description: Aged Human Keratinocytes (Cascade Biologics, now ThermoFisher Scientific, Waltham, Mass.) were maintained in Epi Life® medium containing 60 uM calcium chloride and 1% Human Keratinocyte Growth Supplement (both media components from ThermoFisher Scientific) in a humidified incubator with an atmosphere containing 5% CO2 at 37° C. The medium was refreshed every 2-3 days. Subsequently, cells were trypsinized at 90% confluency and seeded at a density of 1×10^4 per well into 96-well plates with white wall and clear bottom. One or two days after seeding, cell medium was replaced with Hank's Balanced Salt Solution (HBSS), and keratinocytes were pre-treated with GAP (or 0.12-0.240 mM sodium hydroxide vehicle control, pH 7.5) alone or in combination with additional test reagents described above or L-cystine esters alone for 1-2 hours. The concentration of all amino acids constituting the GAP mixture used in this assay are designated in the data tables, and fully described in the abbreviations list below.
After one or two hours of pre-treatment with GAP or additional test reagents, alone or in combination, keratinocytes were then challenged with 25 uM menadione (Sigma-Aldrich), a known inducer of oxidative stress. After 18-20 hours, cells were harvested and analyzed for total glutathione levels using a commercially available kit (GSH-GSSG GLo Assay, Promega), a luminescence-based system for the detection and quantification of total glutathione in cultured cells. In summary, after cell treatment, the media was removed and replaced with a cell lysis reagent for 5 minutes at 20-25° C.; note, all remaining steps were also conducted at 20-25° C. Next, a luciferase generation reagent was added to each well and incubated for 30 minutes. Following this step, a luciferin detection reagent was added to each well and plates were incubated for 15 minutes. Finally, plates were then read for luminescence in a FlexStation 3 plate reader (Molecular Devices). Total glutathione levels were calculated after interpolation of glutathione concentrations from a standard curve. Experimental conditions were typically conducted in at least triplicate determinations. Statistical significance was calculated using 1-way ANOVA. Percent protection was calculated by using the calculated glutathione levels from each experiment in the following equation: […]

Human Keratinocytes [1] = experiment: Reactive Oxygen Species (ROS) Assay (CellROX green, menadione); conditions: for synergistic decrease in ROS production, combination with GAP amino acids vs either alone: resorcinol/test reagent combined with GAP
Description: Human Keratinocytes (Promocell, Heidelberg, Germany) were maintained in EpiLife® keratinocyte medium containing 60 uM calcium chloride and 1% Human Keratinocyte Growth Supplement (HKGS) in a humidified incubator with an atmosphere containing 5% CO2 at 37° C. The medium was refreshed every other day. Subsequently, cells were trypsinized at 90% confluency and seeded at a density of 1-2×10^4 per well into 96-well plates with black wall and clear bottom. On the second day after seeding, cell medium was replaced with Hank's Balanced Salt Solution (HBSS) with or without menadione (10-25 uM), GAP (typically at 49 uM pyroglutamic acid, 60 uM cystine, 194 uM glycine), GAP vehicle (0.2 mM NaOH, pH 7.5), above-described additional test reagents, or combinations of GAP with additional test reagents or L-cystine esters alone, and incubated for additional 18 hours. For ROS detection, CellROX green (Life Tech, Thermo Fisher Scientific, Rockford, USA) reagent was added into each well to a final concentration of 15-25 uM and incubated for additional 2-4 hours at 37° C. in a humidified incubator. The ROS fluorescence was detected using a Tecan microplate reader (Excitation/Emission=490/525). Relative ROS production was calculated with normalization based on the vehicle control treatment which was set to 100%. Where indicated, percent protection was calculated as a comparison to menadione alone treatment, using the measured relative fluorescent units in the following equation: […]
ROS levels were evaluated together with cell viability because it is possible to get a false negative for ROS if treatment is so toxic, that at the time of assay, cells are dead (and there are no longer any detectable ROS). Decrease in ROS levels is meaningful if cells are still viable.

Human Keratinocytes [2] = experiment: Cell Viability Assay (CCK-8, menadione); conditions: for cell viability (% vehicle of control): Table 3B
Description: Human Keratinocytes (Promocell, Heidelberg, Germany) were maintained in EpiLife® keratinocyte medium containing 60 uM calcium chloride and 1% Human Keratinocyte Growth Supplement (HKGS). The medium was refreshed every other day. Subsequently, cells were trypsinized at 90% confluency and seeded at a density of 2×10^4 per well into 96-well transparent tissue culture plates. On the second day after seeding, cell medium was replaced with treatments as described above in ROS assay section. After 18 hours, […] (CCK-8) reagent (Dojindo, Kumamoto, Japan) was diluted 1:10 in HBSS and incubated with cells for 4 h at 37° C. in a humidified incubator. Optical absorption at 450 nm was measured using a Tecan Safire2 plate reader. Relative viability was calculated with normalization based on the vehicle control treatment, which was set to 100%.
Where indicated, percent protection was calculated as a comparison to menadione alone treatment, using the measured relative absorbance units in the following equation: […]

[3] = Table 3A, Olivetol or 3-hydroxytyrosol 10 uM + menadione
[4] = Table 3A, Olivetol or 3-hydroxytyrosol 20 uM + menadione
[5] = Table 3A, Olivetol or 3-hydroxytyrosol 50 uM + menadione
[6] = Table 1B, BR 50 uM where present, + menadione 25 uM
[7] = Table 2B, resorcinol (BR or IPR) 10 uM + menadione
[8] = Table 2B, resorcinol (BR or IPR) 50 uM + menadione
[9] = Table 2B, resorcinol (BR or IPR) 100 uM + menadione
[10] = Table 2E, BR 20 uM where present, + menadione
[11] = Table 1H, CDME 20 uM + menadione
[12] = Table 1H, CDME 40 uM + menadione
[13] = Table 1H, CDME 80 uM + menadione
[14] = Table 1H, CDME 160 uM + menadione
[15] = Table 1F, DTBC 20 uM + menadione
[16] = Table 3C, MR 10 uM where present, + menadione
[17] = Table 3D, 4-CHMR 10 uM + menadione
[18] = Table 3D, 4-CHMR 20 uM + menadione
[19] = Table 3D, 4-CHMR 50 uM + menadione

OCCc1ccc(O)c(O)c1 [3-hydroxytyrosol]
% Protection (improvement vs vehicle control + menadione) (Aged Human Keratinocytes; [3]): −3% | Glutathione Synthesis, Mean (uM glutathione) (Aged Human Keratinocytes; [3]): 0.07 µM | % Protection (improvement vs vehicle control + menadione) (Aged Human Keratinocytes; [4]): −5% | Glutathione Synthesis, Mean (uM glutathione) (Aged Human Keratinocytes; [4]): 0.03 µM | % Protection (improvement vs vehicle control + menadione) (Aged Human Keratinocytes; [5]): −4% | Glutathione Synthesis, Mean (uM glutathione) (Aged Human Keratinocytes; [5]): 0.04 µM | synergistic increase in GSH synthesis, combination with GAP amino acids vs either alone (Aged Human Keratinocytes): no synergistic effect | ROS production (% of vehicle control) (Human Keratinocytes [1]; Table 3B, 3-hydroxytyrosol 10 uM + menadione): 241.6% | ROS production (% of vehicle control) (Human Keratinocytes [1]; Table 3B, 3-hydroxytyrosol 20 uM + menadione): 229.9^1% | synergistic decrease in ROS production, combination with GAP amino acids vs either alone (Human Keratinocytes [1]; + menadione): no synergistic effect | cell viability (% vehicle of control) (Human Keratinocytes [2]; 3-hydroxytyrosol 10 uM + menadione): 16.8% | cell viability (% vehicle of control) (Human Keratinocytes [2]; 3-hydroxytyrosol 20 uM + menadione): 16.5%

CCCCc1ccc(O)cc1O [BR, 4-butylresorcinol]
% Protection (improvement vs. vehicle control + menadione) (Aged Human Keratinocytes; [6]): −1^1% | Glutathione Synthesis, Mean (uM glutathione) (Aged Human Keratinocytes; [6]): 0.06^1 uM | % Protection (improvement vs. vehicle control + menadione) (Aged Human Keratinocytes; [7]): 5% | Glutathione Synthesis, Mean (uM glutathione) (Aged Human Keratinocytes; [7]): 0.10 µM | % Protection (improvement vs. vehicle control + menadione) (Aged Human Keratinocytes; [8]): 3% | Glutathione Synthesis, Mean (uM glutathione) (Aged Human Keratinocytes; [8]): 0.07 µM | % Protection (improvement vs. vehicle control + menadione) (Aged Human Keratinocytes; [9]): 6% | Glutathione Synthesis, Mean (uM glutathione) (Aged Human Keratinocytes; [9]): 0.13 µM | synergistic increase in GSH synthesis, combination with GAP amino acids vs either alone (Aged Human Keratinocytes): synergistic increase | % protection (improvement vs vehicle control + menadione), ROS (Human Keratinocytes [1]; [10]): 0.95% | Mean ROS production (% of vehicle control) (Human Keratinocytes [1]; [10]): 220.7% | synergistic decrease in ROS production, combination with GAP amino acids vs either alone (Human Keratinocytes [1]; + menadione): synergistic decrease | % Protection (improvement vs vehicle control + menadione), cell viability (Human Keratinocytes [2]; [10]): 11.75^3% | Cell viability (% of control) (Human Keratinocytes [2]; [10]): 74.1^3%

COC(=O)[C@@H](N)CSSC[C@H](N)C(=O)OC.Cl.Cl [CDME, L-Cystine dimethyl ester dihydrochloride]
% Protection (improvement vs. vehicle control + menadione), ROS (Human Keratinocytes [1]; [11]): 18.2^2% | ROS production (% of vehicle control) (Human Keratinocytes [1]; [11]): 107.8^2% | % Protection (improvement vs. vehicle control + menadione), ROS (Human Keratinocytes [1]; [12]): 15.5^1,2% | ROS production (% of vehicle control) (Human Keratinocytes [1]; [12]): 111.3^1,2% | % Protection (improvement vs. vehicle control + menadione), ROS (Human Keratinocytes [1]; [13]): 13.3^1,2% | ROS production (% of vehicle control) (Human Keratinocytes [1]; [13]): 114.3^1,2% | % Protection (improvement vs. vehicle control + menadione), ROS (Human Keratinocytes [1]; [14]): 25.7^2% | ROS production (% of vehicle control) (Human Keratinocytes [1]; [14]): 97.9^2% | % protection (improvement vs. vehicle control + menadione), cell viability (Human Keratinocytes [2]; [11]): 30.2^1,2% | Cell viability (% of vehicle control) (Human Keratinocytes [2]; [11]): 90.9^1,2% | % protection (improvement vs. vehicle control + menadione), cell viability (Human Keratinocytes [2]; [12]): 33.4^1,2% | Cell viability (% of vehicle control) (Human Keratinocytes [2]; [12]): 93.1^1,2% | % protection (improvement vs. vehicle control + menadione), cell viability (Human Keratinocytes [2]; [13]): 24.6^1,2% | Cell viability (% of vehicle control) (Human Keratinocytes [2]; [13]): 87.0^1,2% | % protection (improvement vs. vehicle control + menadione), cell viability (Human Keratinocytes [2]; [14]): 51.7^1,2% | Cell viability (% of vehicle control) (Human Keratinocytes [2]; [14]): 105.9^1,2%

CCOC(=O)[C@@H](N)CSSC[C@H](N)C(=O)OCC.Cl.Cl [DEC, Diethyl L-cystinate dihydrochloride]
% Protection (improvement vs. vehicle control + menadione), ROS (Human Keratinocytes [1]; Table 1D, DEC 20 uM + menadione): 38.0^1,2%

CC(C)(C)OC(=O)[C@@H](N)CSSC[C@H](N)C(=O)OC(C)(C)C.Cl.Cl [DTBC, Ditert-butyl L-cystinate dihydrochloride]
% Protection (improvement vs. vehicle control + menadione), ROS (Human Keratinocytes [1]; [15]): 2.2% | % protection (improvement vs. vehicle control + menadione), cell viability (Human Keratinocytes [2]; [15]): 6.0^1% | % protection (improvement vs. vehicle control + menadione), cell viability (Human Keratinocytes [2]; Table 1F, DTBC 40 uM + menadione): 3.0^1% | % protection (improvement vs. vehicle control + menadione), cell viability (Human Keratinocytes [2]; Table 1F, DTBC 80 uM + menadione): −0.1^1%

CC(C)c1ccc(O)cc1O [IPR, 4-isopropylresorcinol]
% Protection (improvement vs. vehicle control + menadione) (Aged Human Keratinocytes; [7]): 6% | Glutathione Synthesis, Mean (uM glutathione) (Aged Human Keratinocytes; [7]): 0.12 µM | % Protection (improvement vs. vehicle control + menadione) (Aged Human Keratinocytes; [8]): 6% | Glutathione Synthesis, Mean (uM glutathione) (Aged Human Keratinocytes; [8]): 0.12 µM | % Protection (improvement vs. vehicle control + menadione) (Aged Human Keratinocytes; [9]): 8% | Glutathione Synthesis, Mean (uM glutathione) (Aged Human Keratinocytes; [9]): 0.16 µM | synergistic increase in GSH synthesis, combination with GAP amino acids vs either alone (Aged Human Keratinocytes): synergistic increase

Cc1ccc(O)cc1O [MR, 4-methylresorcinol]
Mean ROS production (% of vehicle control) (Human Keratinocytes [1]; [16]): 233.5^1% | synergistic decrease in ROS production, combination with GAP amino acids vs either alone (Human Keratinocytes [1]; + menadione): did not result | Cell viability (% of vehicle control) (Human Keratinocytes [2]; [16]): 45.3%

CCCCCc1cc(O)cc(O)c1 [Olivetol, 5-pentylresorcinol]
% Protection (improvement vs vehicle control + menadione) (Aged Human Keratinocytes; [3]): −1% | Glutathione Synthesis, Mean (uM glutathione) (Aged Human Keratinocytes; [3]): 0.14 µM | % Protection (improvement vs vehicle control + menadione) (Aged Human Keratinocytes; [4]): −1% | Glutathione Synthesis, Mean (uM glutathione) (Aged Human Keratinocytes; [4]): 0.13 µM | % Protection (improvement vs vehicle control + menadione) (Aged Human Keratinocytes; [5]): −2% | Glutathione Synthesis, Mean (uM glutathione) (Aged Human Keratinocytes; [5]): 0.11 µM | synergistic increase in GSH synthesis, combination with GAP amino acids vs either alone (Aged Human Keratinocytes): did not result

Oc1ccc(CC2CCCCC2)c(O)c1 [Sample 4-CHMR, 4-(cyclohexylmethyl)resorcinol]
% Protection (Aged Human Keratinocytes; [17]): −4.6% | Glutathione Synthesis, Mean (uM glutathione) (Aged Human Keratinocytes; [17]): 0.07 µM | % Protection (Aged Human Keratinocytes; [18]): −6.2% | Glutathione Synthesis, Mean (uM glutathione) (Aged Human Keratinocytes; [18]): 0.026 µM | % Protection (Aged Human Keratinocytes; [19]): −1.7% | Glutathione Synthesis, Mean (uM glutathione) (Aged Human Keratinocytes; [19]): 0.147 µM | synergistic increase in GSH synthesis, combination with GAP amino acids vs either alone (Aged Human Keratinocytes): did not result
